Data on 17 molecules can be found in ChEMBL document CHEMBL5154688, “Design, Synthesis, and Characterization of I-BET567, a Pan-Bromodomain and Extra Terminal (BET) Bromodomain Oral Candidate” (J Med Chem, 2022).

Molecules are shown by their SMILES. Values after ≈ are worked out from the molar mass of the structure shown. Where only a bound is given, the exact number is not on record here.

Series [1] has as its target T1, Bromodomain-containing protein 4 (Homo sapiens, UniProt O60885). Description: Inhibition of BRD4 BD1 (unknown origin) incubated for 30 mins in presence of fluorescent ligand by TR-FRET method. A general note: TR-FRET usually uses a lanthanide donor and a delayed reading to cut background.
Series [2] in a line: Solubility of the compound at pH 6.5 in fast state simulated intestinal fluid incubated for 16 hrs by HPLC analysis. The series is classed as physicochemical. Particulars: fasted state simulated intestinal fluid (FaSSIF).
Series [3] is described as follows: Artificial membrane permeability of the compound. It is filed as ADME. Conditions: PAMPA; read-out: permeability. On the technique in general: In PAMPA a lipid-coated filter parts donor from acceptor wells.
The target in series [4] is T1, Bromodomain-containing protein 4. Description: Inhibition of BRD4 BD2 (unknown origin) incubated for 30 mins in presence of fluorescent ligand by TR-FRET method.
The nature of series [5]: Solubility of the compound in saline by CLND method. It is filed as physicochemical.
The target of the next series is Cytochrome P450 3A4 (Homo sapiens, UniProt P08684). Kind of series: Inhibition of CYP3A4 (unknown origin). The series is classed as ADME.
Cytochrome P450 3A4, sequence (P08684 whole entry): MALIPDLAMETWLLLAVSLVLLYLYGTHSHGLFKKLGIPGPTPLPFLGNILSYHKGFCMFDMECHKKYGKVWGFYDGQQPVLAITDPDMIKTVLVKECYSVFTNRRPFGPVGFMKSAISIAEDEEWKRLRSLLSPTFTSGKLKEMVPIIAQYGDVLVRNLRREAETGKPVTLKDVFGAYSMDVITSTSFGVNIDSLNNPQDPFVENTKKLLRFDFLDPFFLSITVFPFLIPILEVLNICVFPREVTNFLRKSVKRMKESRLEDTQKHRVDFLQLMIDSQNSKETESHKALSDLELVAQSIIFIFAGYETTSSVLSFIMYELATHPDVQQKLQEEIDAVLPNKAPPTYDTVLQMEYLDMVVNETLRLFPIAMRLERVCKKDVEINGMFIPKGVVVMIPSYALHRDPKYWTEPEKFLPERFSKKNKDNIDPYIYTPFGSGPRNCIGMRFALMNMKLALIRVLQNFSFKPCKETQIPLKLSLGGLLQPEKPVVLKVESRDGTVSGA
A short description of series [6]: Intrinsic clearance in rat hepatocytes after 60 mins by LC-MS/MS analysis. It is filed as ADME, cell-based, Hepatocyte. Conditions: 1 h.
For series [7], the target named is Voltage-gated inwardly rectifying potassium channel KCNH2 (Homo sapiens, UniProt Q12809). Description: Inhibition of hERG. The series is classed as toxicity. In general terms: hERG is a cardiac potassium channel; its block is linked to QT prolongation.
Voltage-gated inwardly rectifying potassium channel KCNH2, sequence (Q12809 whole entry): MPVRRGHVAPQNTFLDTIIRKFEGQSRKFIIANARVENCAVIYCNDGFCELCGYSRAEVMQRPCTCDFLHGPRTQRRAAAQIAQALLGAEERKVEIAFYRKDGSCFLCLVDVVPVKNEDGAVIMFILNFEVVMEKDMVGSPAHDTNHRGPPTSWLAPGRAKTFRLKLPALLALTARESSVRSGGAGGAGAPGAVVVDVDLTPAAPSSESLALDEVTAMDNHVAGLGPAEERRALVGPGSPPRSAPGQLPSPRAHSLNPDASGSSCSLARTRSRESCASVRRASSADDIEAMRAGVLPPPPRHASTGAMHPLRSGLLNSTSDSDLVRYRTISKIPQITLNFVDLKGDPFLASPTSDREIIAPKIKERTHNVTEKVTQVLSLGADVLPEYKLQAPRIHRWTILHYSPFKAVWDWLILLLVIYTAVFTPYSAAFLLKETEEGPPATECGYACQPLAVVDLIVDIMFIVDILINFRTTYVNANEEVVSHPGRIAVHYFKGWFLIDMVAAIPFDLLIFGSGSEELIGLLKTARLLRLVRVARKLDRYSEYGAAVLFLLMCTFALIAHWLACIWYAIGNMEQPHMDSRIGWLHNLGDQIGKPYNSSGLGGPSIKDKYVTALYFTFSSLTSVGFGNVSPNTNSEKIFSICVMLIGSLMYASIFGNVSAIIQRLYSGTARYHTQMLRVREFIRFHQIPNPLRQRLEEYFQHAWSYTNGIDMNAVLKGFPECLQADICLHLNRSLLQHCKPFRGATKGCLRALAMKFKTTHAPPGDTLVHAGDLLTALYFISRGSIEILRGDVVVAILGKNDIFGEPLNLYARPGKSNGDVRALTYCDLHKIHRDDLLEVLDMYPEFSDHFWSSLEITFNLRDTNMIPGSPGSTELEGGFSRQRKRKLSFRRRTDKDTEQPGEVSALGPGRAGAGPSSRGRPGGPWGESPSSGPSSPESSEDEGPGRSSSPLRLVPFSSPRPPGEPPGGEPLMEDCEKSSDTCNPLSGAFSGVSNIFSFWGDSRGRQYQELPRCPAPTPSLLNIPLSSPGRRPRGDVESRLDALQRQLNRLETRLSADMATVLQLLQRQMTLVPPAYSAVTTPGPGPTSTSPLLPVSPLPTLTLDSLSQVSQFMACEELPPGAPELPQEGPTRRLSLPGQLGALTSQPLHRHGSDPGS
A short description of series [8]: Intrinsic clearance in dog hepatocytes incubated upto 45 mins by LC-MS/MS analysis. The series is classed as ADME, cell-based, Canis lupus familiaris, Hepatocyte. Conditions: 0.75 h.
The next series addresses C-C motif chemokine 2 (Homo sapiens, UniProt P13500). Kind of series: Inhibition of MCP-1 in LPS-stimulated human whole blood incubate for 24 hrs by immuno assay. The series is classed as tissue-based.
A short description of series [9]: Intrinsic clearance in human hepatocytes measured after 120 mins by LC-MS/MS analysis. The series is classed as ADME, cell-based, Hepatocyte. Particulars: 2 h.

C-C motif chemokine 2, sequence (P13500 whole entry): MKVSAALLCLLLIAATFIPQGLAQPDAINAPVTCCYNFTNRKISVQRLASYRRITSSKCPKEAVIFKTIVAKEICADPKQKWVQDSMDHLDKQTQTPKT

By IC50 is commonly meant the concentration needed to halve the response being measured. One may read the solubility as the dissolved amount per volume that the medium holds. High values mean much dissolved substance, low ones little dissolved substance. Take `CC(=O)N1c2ccc(F)cc2[C@H](Nc2ccc(C#N)cn2)C[C@@H]1C`: the IC50 in series [1] is 794 nM; in [4] it was 316 nM. The solubility at 16 h in series [2] was 558 µg/mL (≈ 1720 µM). Moreover, in series [3], the Papp was determined as 51 ×10⁻⁶ cm/s.

With `CC(=O)N1c2ccc(F)cc2[C@H](Nc2cnc(C)cn2)C[C@@H]1C`, the IC50 in series [1] was 1260 nM; in [4], 631 nM. This molecule also had a solubility at 16 h in [2] above 1000 µg/mL. The Papp in series [3] was 52 ×10⁻⁶ cm/s.

As usually defined, the solubility (kinetic) is the concentration staying in solution when a stock, usually in DMSO, is diluted into the medium. Regarding `CCNC(=O)c1ccc2c(c1)[C@H](Nc1ccc(F)cn1)C[C@H](C)N2C(C)=O`, the IC50 in series [1] is 794 nM; in [4] it was 158 nM. In series [5], this molecule came in with a solubility (kinetic) of at least 126 µg/mL. Besides, the Papp in series [3] stood at 23 ×10⁻⁶ cm/s.

Take `CCNC(=O)c1ccc2c(c1)[C@H](Nc1cnc(C#N)cn1)C[C@H](C)N2C(C)=O`: the IC50 was 501 nM in [1] and 1000 nM in series [4]. The molecule further registered a solubility (kinetic) in series [5] of at least 73 µg/mL. For the same molecule, the Papp in series [3] was 0.3 ×10⁻⁶ cm/s.

`CC(=O)N1c2ccc(C#N)cc2[C@H](Nc2cnc(C#N)cn2)C[C@@H]1C`: the IC50 in [1] and in series [4] was 501 nM throughout. In series [2], the solubility at 16 h is 60 µg/mL (≈ 181 µM). Moreover, the Papp in series [3] amounted to 19 ×10⁻⁶ cm/s.

`CCNC(=O)c1ccc2c(c1)[C@H](Nc1ccc(C#N)cn1)C[C@H](C)N2C(C)=O`: the IC50 was 200 nM in series [1]; above 39800 nM on Cytochrome P450 3A4; above 50100 nM in series [7]; 251 nM on C-C motif chemokine 2; 100 nM in series [4]. Further, the CLH in [6] is 4.3 mL/min/g; in series [8] it was below 1.26 mL/min/g; in series [9] it was below 0.87 mL/min/g. In series [2], the solubility at 16 h was above 1000 µg/mL. Further, in series [3], the Papp worked out at 4.6 ×10⁻⁶ cm/s.

As for `CCNC(=O)c1ccc2c(c1)[C@H](Nc1ccc(Cl)cn1)C[C@H](C)N2C(C)=O`, the IC50 in series [1] was 316 nM; in series [4], 79.4 nM. The solubility at 16 h in [2] is 90 µg/mL (≈ 233 µM). Further, in series [3], the Papp was determined as 35 ×10⁻⁶ cm/s.

In the case of `CC(=O)N1c2ccccc2[C@H](Nc2cnc(C)cn2)C[C@@H]1C`, the IC50 in series [1] was 1000 nM; in [4] it was 501 nM. The solubility at 16 h in [2] is 270 µg/mL (≈ 911 µM). In addition, the Papp in [3] is 54 ×10⁻⁶ cm/s.

Consider `CC(=O)N1c2ccc(C(N)=O)cc2[C@H](Nc2ccc(Cl)cn2)C[C@@H]1C`, for which the IC50 in [1] was 251 nM; at Cytochrome P450 3A4 it was above 39800 nM; in series [7], above 50100 nM; against C-C motif chemokine 2 it was 398 nM; in series [4] it was 79.4 nM. In series [2], this molecule gave a solubility at 16 h of 884 µg/mL (≈ 2460 µM). Moreover, in series [3], the Papp was 15 ×10⁻⁶ cm/s.

For the molecule `CC(=O)N1c2ccc(C(N)=O)cc2[C@H](Nc2cccc(Cl)c2)C[C@@H]1C`, the results for the IC50 in series [1] and in series [4] were 200 nM and 20 nM, respectively. For the same molecule, the concentration in solution in [2] (solubility at 16 h) came to 33 µg/mL (≈ 92.2 µM). For the same molecule, the Papp in series [3] came to 40 ×10⁻⁶ cm/s.

As for `CCNC(=O)c1ccc2c(c1)[C@H](Nc1ncc(Cl)cn1)C[C@H](C)N2C(C)=O`, the IC50 in series [1] is 100 nM; in series [4] it was 79.4 nM. Also, the solubility at 16 h in [2] is 82 µg/mL (≈ 211 µM). Moreover, the Papp in [3] is below 18 ×10⁻⁶ cm/s.

As for `CCNC(=O)c1ccc2c(c1)[C@H](Nc1ccc(C)cn1)C[C@H](C)N2C(C)=O`, the IC50 in [1] was 794 nM; in series [4] it was 158 nM. Also, in series [2], the concentration in solution (solubility at 16 h) was 44 µg/mL (≈ 120 µM). For the same molecule, the Papp in series [3] was found to be 25 ×10⁻⁶ cm/s.

Take `CC(=O)N1c2ccc(C(N)=O)cc2[C@H](Nc2ccc(C)cn2)C[C@@H]1C`: the IC50 was 794 nM in series [1] and 158 nM in series [4]. Also, the solubility (kinetic) in [5] is at least 143 µg/mL. Further, in series [3], the Papp is 8.2 ×10⁻⁶ cm/s.

For the molecule `CC(=O)N1c2ccccc2[C@H](Nc2ccc(C#N)cn2)C[C@@H]1C`, the IC50 was 1000 nM in [1] and 316 nM in series [4]. Moreover, in [2], the solubility at 16 h was 533 µg/mL (≈ 1740 µM). Also, the Papp in series [3] was found to be 48 ×10⁻⁶ cm/s.

For the molecule `CC(=O)N1c2ccccc2[C@H](Nc2cnc(C#N)cn2)C[C@@H]1C`, the IC50 in [1] and in series [4] was 1260 nM throughout. Moreover, the solubility at 16 h in series [2] is 955 µg/mL (≈ 3110 µM). In addition, the Papp in [3] was 32 ×10⁻⁶ cm/s.

As for `CC(=O)N1c2ccc(C#N)cc2[C@H](Nc2ccc(C#N)cn2)C[C@@H]1C`, the IC50 in series [1] was 501 nM; in [4] it was 158 nM. For the same molecule, the solubility at 16 h in [2] was 279 µg/mL (≈ 842 µM). Further, the Papp in [3] stood at 31 ×10⁻⁶ cm/s.

`CC(=O)N1c2ccc(F)cc2[C@H](Nc2cnc(C#N)cn2)C[C@@H]1C`: the IC50 was 1260 nM in [1] and 1000 nM in series [4]. In series [5], this molecule gave a solubility (kinetic) of 99 µg/mL (≈ 304 µM). The Papp in [3] is 30 ×10⁻⁶ cm/s.
